pIC50: −log10 of the molar value.
Key:
[1] = Inhibition of NMDA receptor
[2] = target: Glutamate NMDA receptor; GRIN1/GRIN2B (Homo sapiens, UniProt Q05586+Q13224); experiment: Antagonist activity at NR1/2B receptor expressed in xenopus laevis at pH 6.9 by two electrode voltage clamp method; type: functional
Chain of Glutamate NMDA receptor; GRIN1/GRIN2B (Q13224 whole entry, other chains not shown): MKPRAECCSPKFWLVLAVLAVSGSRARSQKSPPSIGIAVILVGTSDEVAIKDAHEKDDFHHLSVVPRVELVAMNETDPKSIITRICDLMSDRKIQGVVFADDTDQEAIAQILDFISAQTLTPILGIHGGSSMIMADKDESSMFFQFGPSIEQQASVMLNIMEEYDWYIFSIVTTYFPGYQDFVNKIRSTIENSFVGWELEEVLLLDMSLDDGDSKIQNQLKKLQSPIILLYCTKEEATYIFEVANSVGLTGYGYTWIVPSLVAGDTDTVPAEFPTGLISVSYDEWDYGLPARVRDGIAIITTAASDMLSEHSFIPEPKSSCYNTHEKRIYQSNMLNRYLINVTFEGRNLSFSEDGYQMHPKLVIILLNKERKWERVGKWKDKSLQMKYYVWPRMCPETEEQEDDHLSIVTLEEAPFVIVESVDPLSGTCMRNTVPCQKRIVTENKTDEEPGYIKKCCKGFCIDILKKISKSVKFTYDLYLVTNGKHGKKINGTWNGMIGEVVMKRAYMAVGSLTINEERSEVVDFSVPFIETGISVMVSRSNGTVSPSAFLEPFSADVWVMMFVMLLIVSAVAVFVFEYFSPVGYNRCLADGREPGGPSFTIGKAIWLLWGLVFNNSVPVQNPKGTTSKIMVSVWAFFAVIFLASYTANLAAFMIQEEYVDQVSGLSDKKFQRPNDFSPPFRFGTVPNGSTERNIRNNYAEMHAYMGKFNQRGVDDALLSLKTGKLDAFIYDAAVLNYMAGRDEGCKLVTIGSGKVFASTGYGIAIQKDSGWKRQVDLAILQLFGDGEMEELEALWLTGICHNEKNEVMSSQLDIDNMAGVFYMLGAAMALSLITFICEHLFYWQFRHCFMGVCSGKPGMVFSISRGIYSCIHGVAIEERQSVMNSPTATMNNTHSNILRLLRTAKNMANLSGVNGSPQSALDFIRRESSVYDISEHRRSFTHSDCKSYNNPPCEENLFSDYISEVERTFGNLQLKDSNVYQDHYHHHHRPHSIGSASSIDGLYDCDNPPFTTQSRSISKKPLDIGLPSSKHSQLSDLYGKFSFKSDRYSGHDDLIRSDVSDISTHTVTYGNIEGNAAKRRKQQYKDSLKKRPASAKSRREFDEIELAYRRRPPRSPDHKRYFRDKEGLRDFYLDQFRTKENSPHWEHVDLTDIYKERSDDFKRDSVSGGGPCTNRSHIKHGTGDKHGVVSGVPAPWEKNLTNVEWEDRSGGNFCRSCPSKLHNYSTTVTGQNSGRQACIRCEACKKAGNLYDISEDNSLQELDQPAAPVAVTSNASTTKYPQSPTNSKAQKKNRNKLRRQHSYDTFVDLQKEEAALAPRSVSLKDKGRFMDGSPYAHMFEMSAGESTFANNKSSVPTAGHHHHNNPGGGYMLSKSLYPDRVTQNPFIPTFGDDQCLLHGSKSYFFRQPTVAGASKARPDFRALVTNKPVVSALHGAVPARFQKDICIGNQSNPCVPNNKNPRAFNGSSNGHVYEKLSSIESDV

SMILES	pIC50 [1]	pIC50 [2]
NCCCCCNC1(c2ccccc2)CCCCC1	5.68	
CN1CC[C@@]23CCCC[C@@H]2[C@@H]1Cc1ccc(O)cc13 [DEXTRORPHAN]		6.61

From ChEMBL document CHEMBL1157497, “Theoretical studies on the structure and symmetry of the transmembrane region of glutamatergic GluR5 receptor” (J Med Chem, 2008)
